The record followed here is patent publication US11020457B2, “Compositions and methods for protecting the kidney from ischemia reperfusion injury” (University of Virginia Patent Foundation, priority 2013, dated 2021).

“Also recorded” adds a separate entry of the source.

Format in all cases: in vivo
The subject of assay [1] is C57BL/6 mice. Description: Renal IRI in WT mice: kidney apoptosis (Caspase-3, Bcl-2 real time PCR, TUNEL). As to conditions: for TUNEL reactivity in kidney: 26 minutes ischemia, 24 hours reperfusion, FIG. 3e-f; for kidney Caspase-3 expression: hepcidin before IRI, vs IRI p<0.005, vs sham p<0.03, FIG. 3a; for kidney Bcl2 expression: hepcidin-IRI vs untreated IRI, p<0.0008, FIG. 3b. The method, then:
(§1) All experiments were performed in accordance with the National Institutes of Health and Institutional Animal Care and Use Guidelines. The Animal Care and Use Committee of the University of Virginia approved all procedures and protocols. C57BL/6 mice from the Jackson Laboratory and hepcidin knockout mice (HAMP−/−), a kind gift from Dr Cindy Roy (John Hopkins University) were used in this study. All experiments were performed on 8-10 weeks old male mice. Kidney ischemia-reperfusion surgery was performed as previously reported (44). The core temperature of the mice was maintained between 34° C. and 36° C. using a heating pad. After anesthetizing the mice (ketamine, 12 mg/ml; atropine, 0.48 mg/ml; xylazine, 24 mg/ml; […] mixture administered per 20 g body weight), bilateral flank incisions were made, both renal pedicles were exposed, and cross-clamped for 26 minutes (severe I/R injury) or 24 minutes (mild I/R injury). After the determined ischemia, clamps were removed, and kidneys were allowed to reperfuse for 24 hours. Ambient postoperative air temperature was maintained between 30° C. and 32° C. until mice had fully recovered. Sham-operated animals underwent bilateral flank incisions without clamping of renal pedicles. Twenty-four hours later, mice were euthanized, and tissues were harvested.
Animals were divided into three groups, injected intraperitoneally with water and underwent IRI (IRI), injected intraperitoneally with 50-100 μg hepcidin at different time points prior to IRI (Hepcidin-IRI) or were sham operated (Sham). The experimental design is depicted in FIG. 2a.
Apoptotic cells in the kidney were detected by TUNEL assay following the manufacturer's protocol (Roche Diagnostics, Mannheim, Germany). Briefly, PLP-fixed kidney sections were immersed in 3% hydrogen peroxide-methanol (10 minutes) and permeabilized with cold 0.1% Triton-X100 and 0.1% […] (2 minutes). DNA fragments in apoptotic cells were then labeled and identified by terminal transferase dUTP conjugated to fluorescein (Roche Diagnostics) for 60 minutes at room temperature in dark. The apoptotic cells were imaged using a Zeiss Axiovert 200 microscope with Apo Tome (Zeiss).
For RNA isolation, frozen tissues were re-suspended in RLT buffer (Qiagen Inc, Valencia, Calif.) and homogenized using TissueLyser system (Qiagen Inc, Valencia, Calif.). Total RNA from tissue homogenate was purified using RNAeasy mini kit (Qiagen Inc, Valencia, Calif.) following manufacturers instructions. 1 μg of RNA was used to synthesize cDNA using the iScript cDNA synthesis kit (Bio-Rad). The cDNA template was mixed with iTAQ SYBR green universal super mix (Bio-Rad) and quantitative PCR was carried out on CFX Connect system (Bio-Rad). Predesigned primers for Caspase-3 and Bcl-2 were purchased from Bio-rad. Glyceraldehyde-3-phosphate dehydrogenase (GAPDH) was amplified in parallel and used as the reference gene in quantification. Data is expressed as the relative gene expression and was calculated using the 2 (−ρρC(T)) method.
For orientation: In qPCR the cycle at which signal appears reflects the starting amount.

Assay [2] relates to C57BL/6 mice. Briefly: Renal IRI in WT mice: 4-HNE immunohistochemistry (oxidative stress). As to conditions: hepcidin-treated vs untreated IRI mice, FIG. 4a. The procedure:
as §1, with “Sham-operated animals underwent bilateral flank incisions without clamping of renal pedicles. Twenty-four hours later, mice were euthanized, and tissues were harvested.” left out
Kidney sections were embedded in paraffin, 3 μm sectioned, and stained for 4 Hydroxynonenal (4-HNE) using standard protocols. […] Sections were washed 3 times in NaPO4 buffer, and then incubated in ABC ready-to-use reagent (Vector Labs) for 30 minutes. […]

The test system of assay [3] is hepcidin knockout mice (HAMP−/−). Briefly: Mild renal IRI in HAMP-/- mice: serum iron and tissue non-heme iron. As to conditions: for serum iron / liver non-heme iron content: HAMP-/- hepcidin-IRI vs untreated IRI p<0.005, vs sham p<0.0005; for serum iron: FIG. 6e; for liver non-heme iron content: FIG. 6f. The procedure:
as §1
Serum iron (Abcam), hepcidin (Intrinsic Lifescience) and IL-6 levels (eBioscience) were measured using commercial ELISA kits, as per manufacturers instructions.
Non-heme iron content in tissue was measured using the method described in published literature with slight modifications (60). Briefly, tissues were accurately weighed, finely cut and placed for 20 hours at 65° C. in a solution of 3M HCl/0.61 M trichloroacetic acid. After cooling to room temperature, the acid extract was spun at 12,000 rpm to collect the supernatant. 0.1 mL of the supernatant was incubated with chromogen solution (1.86 mM bathophenanthroline sulfonate/143 mM thioglycollic acid) for 20 minutes, and OD was measured at 535 nm. A standard curve was generated using an iron standard solution (Ricca Iron AA standard) against water as the blank. Non-heme iron content (μg/g) was calculated using the equation described (60).
We measured the serum iron and non-heme iron content in the kidney, spleen and liver of sham, untreated and hepcidin injected HAMP^−/− mice after IRI.

The test system is the same in assay [4]. Description: Mild renal IRI in HAMP-/- mice: 4-HNE staining and immunofluorescence of neutrophils and CD11b cells. The note with it: for kidney 4-HNE immunoreactivity: hepcidin reconstituted HAMP-/- IRI, FIG. 8c; for kidney neutrophil and CD11b cell infiltration: hepcidin reconstitution in HAMP-/- IRI mice, FIGS. 8e and g. The method, then: as §1
Kidney sections were embedded in paraffin, 3 μm sectioned, and stained for 4 Hydroxynonenal (4-HNE) using standard protocols. Briefly sections were deparaffanized in xylenes, rehydrated in a series of ethanol rinses from 100% to 70% ethanol, then washed in distilled water. Sections were then incubated in 3% H2O2 in methanol for 20 minutes. After treating with Avidin and Biotin for 15 minutes each (Vector) the sections were blocked in blocking buffer containing 10% donkey serum in sodium phosphate buffer (NaPO4 buffer), at room temperature for 30 minutes. 4-HNE antibody was diluted in 1% BSA in NaPO4 buffer (Abcam; 1:1000) and added to sections overnight at 4° C. Sections were washed 3 times with NaPO4 buffer for 5 minutes each and incubated with biotinylated donkey anti-goat secondary antibody (Vector) for 1 hour. Sections were washed 3 times in NaPO4 buffer, and then incubated in ABC ready-to-use reagent (Vector Labs) for 30 minutes. After another 3 washes with NaPO4 buffer the sections exposed to diaminobenzidine (DAB) for 5 minutes followed by washing with in distilled water. The sections were counter-stained with 1% methylene blue solution, washed in water and dehydrated with xylene. Sections were imaged by using a Zeiss Axio Imager Z2/Apotome Microscope fitted with motorized focus drives and motorized XYZ microscope stage and integrated to a workstation running StereoInvestigator software, version 10.51 (MBF Bioscience, Williston, Vt.) […]

Assay [5] relates to folic acid induced acute kidney injury. Briefly: Folic acid induced acute kidney injury (data not shown).

For “Mouse hepcidin 25 (DTNFPICIFCCKCCNNSQCGICCKT; listed as Mus musculus)”, in the assay with C57BL/6 mice [1], the “TUNEL reactivity in kidney” value is given as “reduced by Hepcidin pretreatment”, the “kidney Caspase-3 expression” value is reported as “significantly reduced IRI-induced Caspase-3 expression; also recorded: lower transcriptional activation of pro apoptotic Caspase3” and the “kidney Bcl2 expression” value is listed as “better preservation of anti apoptotic Bcl2”. For the same substance, in the assay with C57BL/6 mice [1] (listed as hepcidin), the “TUNEL reactivity in kidney” value is on record as “remarkably fewer TUNEL-positive tubules”, the “kidney Caspase-3 expression” value is “even lower than the sham mice” and the “kidney Bcl2 expression” value was “significantly higher expression of Bcl2 compared to untreated IRI mice”. For the same substance, the “kidney 4-HNE immunoreactivity (oxidative stress)” value in the assay on C57BL/6 mice [2] is “reduced the reactivity to 4 HNE; also recorded: markedly reduced”. Besides, the “kidney 4-HNE immunoreactivity (oxidative stress)” value with C57BL/6 mice [2] (listed as hepcidin) is “far less 4-HNE immunoreactivity”. Moreover, in assay [3], the serum iron entry was “significantly reduced serum iron” and the “liver non-heme iron content” value was “significantly higher non-heme iron”. Further, in assay [3] (listed as hepcidin), the serum iron result was “significantly lowered serum iron” and the “liver non-heme iron content” value is recorded as “significantly higher than the untreated”. In addition, the “splenic iron content by Prussian blue staining” value in assay [3] (hepcidin-treated HAMP-/- mice) is given as “qualitative increases in splenic iron content”. Further, the “non-heme iron content of the spleen and kidneys” value in assay [3] (sham, untreated and hepcidin injected HAMP-/- mice after IRI (data not shown)) is listed as “could not detect quantitative differences”. Besides, in assay [4], the “kidney 4-HNE immunoreactivity” value is “little reactivity to 4 HNE”; the “kidney neutrophil and CD11b cell infiltration” value is recorded as “dramatically reduced”. Moreover, in assay [4] (listed as hepcidin), the “kidney 4-HNE immunoreactivity” value was “far less immunoreactivity to 4-HNE”; the “kidney neutrophil and CD11b cell infiltration” value was “almost completely prevented kidney injury-associated neutrophil or CD11b cell infiltration”. Besides, the “protection against folic acid induced acute kidney injury” value in assay [5] is “protective against folic acid induced acute kidney injury”.
